# Assay results taken from patent US10772855B2, “N-bromotaurine solutions and emulsions against abnormal cells” (NASCO AD BIOTECHNOLOGY LABORATORY, priority 2016, dated 2020).
# Entries after “also recorded” stand apart in the source; their conditions may differ.
# Legend:
# [1] = system: skin of patients with acne vulgaris; conditions: NBrT up to 5 mM applied onto the skin of patients; cited from earlier work
# [2] = system: cancer cell lines A549, PC3, MDA-MB 231, HeLa, HepG2; experiment: Anti-proliferative effect of stored versus fresh NBrT aqueous solutions; format: cell-based; conditions: aqueous solution in double distilled water or PBS left for 15, 30 or 45 days at room temperature or 4° C.; all cancer cell lines tested
# Method: During studies on NBrT anti-proliferative effect against cancer cells, aqueous solutions of NBrT in double distilled water or phosphate buffered saline where left for 15, 30 and 45 days in room temperature or at 4° C. The anti-proliferative effect of NBrT solutions was decreased by 30-40% each time a respective solution was tested that was left for 15, 30 or 45 days since time of production in comparison with the results of the anti-proliferative effect obtained from the same but fresh solution of NBrT, tested at the same day of production. The same results were noticed in all cancer cell lines tested (A549, PC3, MDA-MB 231, HeLa, and HepG2). The loss of anti-proliferative effect of the aqueous solutions of NBrT (15, 30, 45 days) was tightly connected with the loss of corresponding absorbance at 286 nm having as a reference that a solution of 10 mM NBrT has a peak at 430M^−1 cm^−1 at day of production.
# [3] = system: HLF-1 (Normal fibroblast - control); experiment: Proliferation assay (cellular viability, crystal violet, OD 595 nm), normal fibroblast control; format: cell-based; conditions: NBrT concentration range of 12.5-40 μM; surplus of taurine, later addition of NaOBr at 24, 48 and 72 hours
# From the text: (§1) Following, a more detailed description of the enhancement of the anti-proliferative effect obtained with the methodology of this invention, having the aqueous solutions of NBrT/taurine, is given. […]
# (§2) The calculation of the increase of anti-proliferative activity in cancer cells with the methodology of this invention was made in comparison to the rate […] The effect of NBrT/taurine solutions with latter addition of NaOBr, namely the solutions of this present invention were compared with effect obtained by NBrT solutions without a surplus of Taurine and without latter addition of NaOBr using the same cell lines in the same experiment. […] The anti-proliferative effect on all cell cultures was measured as a means of cellular viability by Optical Density at 595 nm using a Tecan reader using a crystal violet reagent. All experiments were performed in triplicate and mean values were used.
# [4] = system: (Normal fibroblast - control); experiment: as above; format: cell-based; conditions: human
# From the text: as §1, §2
# [5] = system: fibroblast-like synoviocytes; conditions: fibroblast-like synoviocytes that participate in rheumatoid arthritis; cited from earlier work
# [6] = system: hyper-proliferating cell lines A549, PC3, HeLa, MDA-MB 231, HepG2; experiment: Proliferation assays, statements for all cancer cell lines together; format: cell-based; conditions: for enhancement of anti-proliferative effect against cancer cells as single parameter in NBrT solutions: surplus of taurine or later addition of NaOBr alone, NBrT 62.5-250 μM
# Method: (§3) The same accounts by later addition of Taurine to a 200 mM concentration in a 40 mM NBrT solution to cause enhancement of anti-proliferative effect against cancer cells. The enhancement of anti-proliferative effect against cancer cells is achieved by the use of the surplus of taurine present in the solution that is thereafter reacting with a later addition of 40 μM NaOBr solution at 24, 48 and 72 hours of in vitro incubation of cancer cells. That is, with a 1% addition of 40 μM NaOBr solution in total volume of cell cultures at 24, 48 and 72 hours, i.e. 0.4 μM NaOBr, favorable circumstances for fresh NBrT synthesis are made in order to contribute to reaction against abnormally hyper-proliferative cells. […] Normally proliferating cell lines show an evident decrease in their proliferative ability when grown at concentrations of NBrT above 250 μM. It has to be noted that all cells tested are not affected in their proliferation rate when growing in the same medium containing 0.4-40 μM NaOBr. In general, in order to achieve acceleration of anti-proliferative effect on hyper-proliferating cells without causing damage on proliferation of normal cells the concentration of NBrT in solution is 1:5 the concentration of estimated Taurine and the addition of NaOBr solution at latter stages of treatment is 1:100 the concentration of NBrT and 1:500 the concentration of Taurine.
# Following, a more detailed description of the enhancement of the anti-proliferative effect obtained with the methodology of this invention, having the aqueous solutions of NBrT/taurine, is given. Stock solution of 4 mM NBrT/20 mM taurine was diluted in final concentrations of 62.5, 125, 250 μM NBrT and 312.5, 625, 1250 μM taurine, respectively, in culture medium DMEM/10% FBS.
# During cell cultivation NaOBr solutions of […] were added in 1:100 dilution to the corresponded 62.5, 125, and 250 μM NBrT and 312.5, 625, 1250 μM taurine every 24/48/72 hours. The calculation of the increase of anti-proliferative activity in cancer cells with the methodology of this invention was made in comparison to the rate of anti-proliferative effect that solutions of NBrT exert in final concentrations of 62.5, 125 and 250 μM in the same cultivation medium. The effect of NBrT/taurine solutions with latter addition of NaOBr, namely the solutions of this present invention were compared with effect obtained by NBrT solutions without a surplus of Taurine and without latter addition of NaOBr using the same cell lines in the same experiment. […] The anti-proliferative effect on all cell cultures was measured as a means of cellular viability by Optical Density at 595 nm using a Tecan reader using a crystal violet reagent. All experiments were performed in triplicate and mean values were used.
# [7] = system: Prostaglandin E2 production; conditions: via Heme Oxygenase; cited from earlier work
# purulent leg ulcers = conditions: cited from earlier work
# all cells tested = experiment: Proliferation rate of cells in medium containing NaOBr alone; format: cell-based
# Method: as §3, with “Taurine. […]” for “Taurine.”
smiles,measurement,setting,value
"O=S(=O)(O)CCNBr [NBrT, N-bromotaurine]",side effects on skin,[1],literally no side effect
same,decrease of anti-proliferative effect in comparison with the same but fresh solution,[2],30-40%
same,effect on normally proliferating fibroblast cell line HFL-1,[3],literally no effect
same,NBrT concentration at which normally proliferating cell lines show an evident decrease in their proliferative ability,[4],above 250 μM
same,IL6 and inflammatory mediators (PEG2),[5],inhibit
same,anti-proliferative effect on all hyper-proliferating cell lines tested,"[6]; surplus of taurine and later addition of NaOBr at 24, 48 and 72 hours",accelerating anti-proliferative effect
same,Prostaglandin E2 production (eicosanoid PGE2),[7],inhibition of Prostaglandin E2 production
"O=S(=O)(O)CCNCl [NCT, N-Chlorotaurine]",tolerability and toxicity,purulent leg ulcers; applied locally onto patient's wounds,"increased tolerability, low toxicity"
same,efficacy against purulent leg ulcers,purulent leg ulcers; phase II clinical study,significant results against purulent leg ulcers
[Na+].[O-]Br [NaOBr],proliferation rate of all cells tested,all cells tested; medium containing 0.4-4 μM NaOBr,not affected
same,proliferation rate of all cells tested,all cells tested; medium containing 0.4-40 μM NaOBr,not affected
same,enhancement of anti-proliferative effect against cancer cells as single parameter in NBrT solutions,[6],do not exert any enhancement; also recorded: do not confer enhancement
NCCS(=O)(=O)O [Taurine],enhancement of anti-proliferative effect against cancer cells as single parameter in NBrT solutions,[6],do not exert any enhancement
same,enhancement of anti-proliferative effect against cancer cells as single parameter in NBrT solutions,[6]; listed as taurine,do not confer enhancement
